Laboratory results: patent publication US20100173972A1, “METHODS AND USES RELATED TO RHBDL4” (MEDICAL RESEARCH COUNCIL, priority 2007, published 2010)
“Also recorded” adds a separate entry of the source. Values belong to the molecule of their own block, whether it stands above or below them.

How the values were obtained:
[1] = test system: TGFalpha release, HEK293T cells; test: Time course after PMA induction of HEK293T cells overexpressing pro-TGFalpha, with protease inhibitors; type: cell-based, human; details: DCI 100 μM; HEK293T; Bcl-XL co-expressed
Protocol: Cell culture and cell-based rhomboid cleavage assay. Cells were propagated in DMEM supplemented with 10% fetal calf serum. COS-7 cells were transfected in 35 mm wells with FuGENE 6 (Roche) as described (7). In brief, 250 ng plasmid encoding the substrate (as indicated in the description of the figures), 25 ng for the rhomboid tested, 50 ng for the GRP receptor and empty plasmid to bring the total DNA to 1 μg was used. For protease titration, 2.5 ng to 250 ng plasmid coding RHBDL4 was used. HeLa and HEK293T were transfected with polyethyleneimine (linear, MW 25000; Polysciences) as described (32) using twice the amount of DNA as used with FuGENE. Transfection efficiency was monitored by co-transfection of pEGFP (Invitrogen). Sixteen hours post transfection, medium was replaced with serum-free medium containing 10 μM BB94 (British Biotech) unless otherwise stated. For activation of endogenous rhomboid activity, phorbol 12-myristate 13-acetate (PMA) (1 μM, from Sigma) or bombesin (100 nM, from Sigma) was added to the cell medium. For inhibitor studies, the indicated protease inhibitors (from Calbiochem), diluted from a stock solution in DMSO, were compared with a carrier only. Medium was harvested typically after 24 to 30 hours; for inhibitor studies using 3,4-Dichloroisocoumarin (DCI) a time course with 0 minutes, 30 minutes and 4 hours was performed (FIG. 4C). Cells were solubilized in SDS-sample buffer and analyzed by SDS-PAGE. EndoH (New England Biolabs) and PNGaseF (New England Biolabs) treatment of SDS-solubilized cell extracts was performed according to the manufacturers instructions. Conditioned media were centrifuged for 10 minutes at full speed in a microfuge to remove cell debris, and subsequently proteins in the supernatant were precipitated by adding trichloroacetic acid (TCA) to 10%. The precipitate was recovered by centrifugation, washed with acetone and dissolved in SDS-PAGE sample buffer and analyzed by SDS-PAGE. Alternatively to TCA precipitation, TGFalpha-H8 in conditioned medium was captured by metal-chelate chromatography using Ni-NTA agarose beads (Qiagen) in the presence of 20 mM imidazole at pH 8.0. Subsequently beads were washed with 20 mM Tris-Cl pH 8.0, 50 mM imidazole, eluted with SDS-sample buffer and analyzed by SDS-PAGE and Western blotting (see below). Typically, from a 35 mm tissue culture dish, 10% of cell extracts and 20% of tissue culture supernatant were loaded. To increase the sensitivity, for experiments shown in FIGS. 1C, 3E, 4A and 4C, five times the amount of the media fractions were loaded.
Western blotting. Proteins were analyzed by 4-20% Tris-Glycine gradient gels (Invitrogen) followed by Western blot analysis using either anti FLAG M2-HRP (1:1000; Sigma), anti HA antibody 16B12 (1:1000; Covance), anti actin antibody ab8227 (1:5000; Abcam) or affinity purified polyclonal rabbit antibody anti RHBDL4 (1:4000; see above). In order to detect the 6 kDa form of TGFalpha, proteins were transferred on PVDF membrane with 0.2 μm pore size (Millipore) and probed with 1:100 anti TGFalpha antibody 134A-2B3 (Oncogene). For the detection of phosphorylated EGFR, PVDF membranes were blocked in 3% BSA in TBS-Tween supplemented with 200 μM NaVO3. Protein was detected with anti phospho-EGFR antibody 9H2 (1:2000, Upstate). […] Bound antibodies were detected by incubation with secondary antibody (Santa Cruz Biotechnology) followed by enhanced chemiluminescence (Amersham Biosciences).

cells = test: Toxicity of DCI to cells during TGFalpha release experiment; type: cell-based; details: over several hours, similar time course as TGFalpha release
From the text: A central prediction of our model is that the observed BB94-insensitive TGFalpha release would be inhibited by the serine protease inhibitor DCI, a rhomboid inhibitor. […] To help the cells survive, we expressed the antiapoptotic protein Bch XL. […] Overall, these experiments strongly support that EGFR transactivation is triggered by RHBDL4-catalysed shedding of pro-TGFalpha.
Cell culture and cell-based rhomboid cleavage assay. Cells were propagated in DMEM supplemented with 10% fetal calf serum. COS-7 cells were transfected in 35 mm wells with FuGENE 6 (Roche) as described (7). In brief, 250 ng plasmid encoding the substrate (as indicated in the description of the figures), 25 ng for the rhomboid tested, 50 ng for the GRP receptor and empty plasmid to bring the total DNA to 1 μg was used. For protease titration, 2.5 ng to 250 ng plasmid coding RHBDL4 was used. […] Transfection efficiency was monitored by co-transfection of pEGFP (Invitrogen). […] Cells were solubilized in SDS-sample buffer and analyzed by SDS-PAGE. […] The precipitate was recovered by centrifugation, washed with acetone and dissolved in SDS-PAGE sample buffer and analyzed by SDS-PAGE. […] Subsequently beads were washed with 20 mM Tris-Cl pH 8.0, 50 mM imidazole, eluted with SDS-sample buffer and analyzed by SDS-PAGE and Western blotting (see below). […]

mouse RHBDL4 = biological target: T1, mouse RHBDL4 (Mus musculus, UniProt Q8BHC7); test: In vitro activity assay with recombinant mouse RHBDL4 (Gurken TMD substrate); type: biochemical; parameters: His6 (C); made in house; host or cells: E. coli BL21-Gold(DE3) with pRARE2; Triton X-100 solubilised membrane fraction; details: Triton-X 100 solubilised E. coli membrane fraction; also run with mouse RHBDL1 and human RHBDL2
T1 sequence (Q8BHC7 1-315): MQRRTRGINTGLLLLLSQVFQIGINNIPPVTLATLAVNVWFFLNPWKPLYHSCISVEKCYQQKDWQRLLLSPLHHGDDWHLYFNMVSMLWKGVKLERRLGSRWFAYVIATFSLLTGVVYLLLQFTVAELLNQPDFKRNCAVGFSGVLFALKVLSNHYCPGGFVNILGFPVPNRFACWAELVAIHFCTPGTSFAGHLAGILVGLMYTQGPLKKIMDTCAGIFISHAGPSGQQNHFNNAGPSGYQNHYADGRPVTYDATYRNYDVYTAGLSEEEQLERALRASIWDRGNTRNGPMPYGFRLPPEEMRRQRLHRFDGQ
From the text: To produce recombinant RHBDL4, a RHBDL4-purification tag fusion protein is expressed and solubilised with detergent appropriate for in vitro activity assay. In this example, C-terminally His6-tagged mouse RHBDL4 is expressed in E. coli BL21-Gold(DE3) cells harbouring the expression vector and the extra plasmid pRARE2 (Novagen) as described for human RHBDL2 (Lemberg, 2005, EMBO vol 24 pp 464-472).
After the protein expression, cells are disrupted and membranes containing the recombinant RHBDL4 are harvested by centrifugation as had been described (Lemberg, 2005 above).
Subsequently the recombinant protein is solubilised with the detergent Triton-X 100 and tested for activity.
Radiolabelled substrate, such as the substrate TMD, is generated by cell-free in vitro translation using wheat germ extract and [35S]methionine as, had been described (Lemberg and Martoglio, 2003 Anal Biochem. vol 319 pp 327-31).
In this example a substrate corresponding to an N-terminal methionine plus residues 224 to 272 of Drosophila Gurken is used. […]
For the cleavage assay, 1-4 μl in vitro translation mix or 50-200 μg/ml recombinant substrate are added to a 40 μl-reaction containing recombinant RHBDL4 (e.g. about 1-5 μg) in 50 mM HEPES/NaOH, pH 7.4, 10% glycerol and 50 mM EDTA. Samples are incubated at 30° C. and subsequently the cleavage reaction is analyzed by SDS-PAGE as described (Lemberg, 2005 above). […]

[2] = biological target: RHBDL4-processed extracellular TGFalpha (post-translationally modified higher MW forms), P01135
Chain of RHBDL4-processed extracellular TGFalpha (post-translationally modified higher MW forms), P01135 (P01135 whole entry, looked up, tested part not stated): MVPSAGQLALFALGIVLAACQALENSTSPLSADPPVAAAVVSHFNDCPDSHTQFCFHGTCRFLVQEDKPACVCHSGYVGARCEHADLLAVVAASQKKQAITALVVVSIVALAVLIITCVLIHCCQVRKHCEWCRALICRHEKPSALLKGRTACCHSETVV

- Cleavage of Drosophila Gurken TMD substrate (mouse RHBDL4): inhibited
Molecule: O=c1oc(Cl)c(Cl)c2ccccc12 [DCI, 3,4-Dichloroisocoumarin]
- Release of the 37 kDa form of TGFalpha in response to PMA [1]: inhibited; also recorded: strong and specific inhibitory effect
- Toxicity to cells (cells): toxic to cells

B1: recombinant mouse TACE (R&D Systems) (protein)
chain: RAEPNPLKNTCKLLVVADHRFYKYMGRGEESTTTNYLIELIDRVDDIYRNTSWDNAGFKGYGVQIEQIRILKSPQEVKPGERHFNMAKSFPNEEKDAWDVKMLLEQFSFDIAEEASKVCLAHLFTYQDFDMGTLGLAYVGSPRANSHGGVCPKAYYNPTVKKNIYLNSGLTSTKNYGKTILTKEADLVTTHELGHNFGAEHDPDGLAECAPNEDQGGKYVMYPIAVSGDHENNKMFSNCSKQSIYKTIESKAQECFQERSNKVCGNSRVDEGEECDPGIMYLNNDTCCNSDCTLKPGVQCSDRNSPCCKNCQFETAQKKCQEAINATCKGVSYCTGNSSECPPPGDAEDDTVCLDLGKCKAGKCIPFCKREQELESCACVDTDNSCKVCCRNLSGPCVPYVDAEQKNLFLRKGKPCTVGFCDMNGKCEKRVQDVIERFWDFIDQLSINTFGKFLADN
- in vitro TACE cleavage assay (Western blot) [2]: Recombinant TACE cleaved the post-translationally modified higher MW forms of TGFalpha. (filled triangles), generating the mature 6 kDa form
